pIC50: −log10 of the molar value. Read-outs that look alike come from different tables or passages of the source.

Usually AUC stands for the area under the concentration-time curve, a measure of exposure. For orientation: Cmax means the peak of the concentration-time curve. A word on the Tmax: it is the time at which the peak concentration occurs. For orientation: half-life means how long it takes for the measured level to halve. As usually defined, the pIC50 is the IC50 on a negative log10 scale, so that one unit is a factor of ten.

A short description of series [1]: PK study in rats, single oral administration. The class given is in vivo. Also on record: AUC: concentration or dose not given beside the values. The settings on record: rat, plasma. The protocol:
Pharmacokinetics of compounds in rats were analyzed using the following experiment. Rats were fasted overnight prior to administration and until approximately 4 hours after administration. Rats were given a single oral administration of compound at same dose. Administration volume was 10 ml/kg. Blood samples were collected from the retro-orbital sinus at various times over the following 7 hrs. Immediately after each collection, plasmas were separated from blood cells by centrifugation and stored at −20° C. until the analysis was performed. The plasma samples were analyzed using a reverse phase high-performance chromatography (HPLC) method.

The nature of series [2]: Metabolic stability test in human intestinal microsomes. The series is classed as in vitro ADME. The settings on record: 5 μg/mL, 1 mg/mL protein, 2 hr reaction time. The protocol: (§1) 1) Metabolic Stability Test
(§2) Diluted sample (final 5 μg/mL in 0.1 M potassium phosphate buffer, pH 7.4) was pre-incubated with cofactors (glucose-6-phosphate 3.3 mM, NADPH 1.3 mM, MgCl2 0.16 mM, glucose-6-phosphate dehydrogenase 0.4 U/mL final) and enzyme reaction was initiated with the addition of human intestinal (1 mg/mL protein) or rat liver microsomes (0.5 mg/mL protein). Reaction was terminated with 2× volume of cold acetonitrile after 1 min (initial point) or 30 min (reacted sample) incubation. In case of human intestinal microsomes, 2 hr reaction time was employed. Reaction mixture was undergone extraction in shaking bath over 20 min, after which resultant supernatant was separated by centrifugation. Area of parent compound peak was analyzed in the supernatant using HPLC-UV method and the extent of metabolism was shown as the decreased compound peak area (%) from initial point.

Series [3] can be described thus: Metabolic stability test in rat liver microsomes. The class given is in vitro ADME. The settings on record: 5 μg/mL, 0.5 mg/mL protein, 30 min incubation. The protocol:
as §1, §2

The next series concerns the target T1, vanilloid receptor (Rattus norvegicus, UniProt O35433).
T1 construct: DRG nerve cells from the primary culture of 2 days were equilibrated; endogenous in cells; host or cells: primary culture of dorsal root ganglion neurons from neonatal SD rats
The series is described as follows: 45Ca influx test in cultured neonatal rat DRG neurons, inhibition of capsaicin response. The class given is cell-based. The method, boiled down:
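45Ca influx measured by scintillation counting of SDS-eluted neurons after 10 min at room temperature with test compound, 0.5 μM capsaicin (final) and 10 μCi/ml 45Ca in Ca/Mg-free HEPES-HBSS pH 7.4. Cells: primary DRG neurons from newborn SD rats, cultured 2 days with NGF and Ara-C.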

Setting [4] is: neonatal rat DRG neurons, capsaicin 0.5 μM, 45Ca influx, read-out: Antagonist Calcium Uptake Test (IC50).
The mark [5] stands for this setting: Table 3, unit inferred, read-out: IC50.

T1 sequence (O35433 whole entry): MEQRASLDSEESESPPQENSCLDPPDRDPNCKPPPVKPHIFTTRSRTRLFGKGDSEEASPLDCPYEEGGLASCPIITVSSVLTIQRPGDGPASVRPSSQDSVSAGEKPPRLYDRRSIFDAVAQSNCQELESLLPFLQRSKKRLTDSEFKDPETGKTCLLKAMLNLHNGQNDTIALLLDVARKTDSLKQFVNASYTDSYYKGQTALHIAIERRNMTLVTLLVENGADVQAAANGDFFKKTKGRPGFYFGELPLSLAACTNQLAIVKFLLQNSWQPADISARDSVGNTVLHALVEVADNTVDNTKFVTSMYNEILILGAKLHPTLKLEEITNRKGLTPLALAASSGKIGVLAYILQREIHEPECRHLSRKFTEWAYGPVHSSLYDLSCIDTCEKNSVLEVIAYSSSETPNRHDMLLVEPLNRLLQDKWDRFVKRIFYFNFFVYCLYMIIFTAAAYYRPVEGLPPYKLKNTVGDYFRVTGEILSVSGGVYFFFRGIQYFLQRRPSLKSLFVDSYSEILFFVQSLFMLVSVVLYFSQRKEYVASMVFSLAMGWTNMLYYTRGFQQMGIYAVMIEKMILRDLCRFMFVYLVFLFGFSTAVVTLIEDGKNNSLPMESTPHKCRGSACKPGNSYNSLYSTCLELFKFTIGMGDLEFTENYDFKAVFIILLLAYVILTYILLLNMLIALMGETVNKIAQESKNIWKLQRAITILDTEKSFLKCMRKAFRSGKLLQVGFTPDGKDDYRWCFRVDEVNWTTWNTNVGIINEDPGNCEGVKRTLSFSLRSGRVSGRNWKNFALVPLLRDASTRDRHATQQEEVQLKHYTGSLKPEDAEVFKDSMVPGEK

In the case of `C#Cc1cc(CNC(=O)/C=C/c2ccc(C(F)(F)F)nc2N2CCOCC2)cc(F)c1NS(C)(=O)=O` [Example 12, N-(3-Ethynyl-5-fluoro-4-methanesulfonylamino-benzyl)-3-(2-morpholin-4-yl-6-trifluoromethyl-pyridin-3-yl)-acrylamide], in series [1], the exposure (AUC) is 3240 ng·h/mL, the highest level (Cmax) was 723 ng/mL, the Tmax was determined as 2.38 h and the half-life is 1.7 h. In series [2], the “Stability HIM (% metabolized in human intestinal microsomes)” value amounted to 12.0%. In addition, the “Stability RLM (% metabolized in rat liver microsomes)” value in series [3] was found to be 11.7%. The pIC50 at vanilloid receptor (setting [4]) was 6.59.
Turning to `C#Cc1cc(CNC(=O)/C=C/c2ccc(C(F)(F)F)nc2OC)cc(F)c1NS(C)(=O)=O` [Example 42, N-(3-Ethynyl-5-fluoro-4-methanesulfonylamino-benzyl)-3-(2-methoxy-6-trifluoromethyl-pyridin-3-yl)-acrylamide], the “Stability HIM (% metabolized in human intestinal microsomes)” value in series [2] was determined as 17.1%. Further, the “Stability RLM (% metabolized in rat liver microsomes)” value in series [3] is 17.1%. Also, the pIC50 on vanilloid receptor (setting [4]) was 7.02.
For `COCCNc1nc(C(F)(F)F)ccc1/C=C/C(=O)NCc1ccc(NS(C)(=O)=O)c(F)c1` [Example 45, N-(3-Fluoro-4-methanesulfonylamino-benzyl)-3-[2-(2-methoxy-ethylamino)-6-trifluoromethyl-pyridin-3-yl]-acrylamide], in series [2], the “Stability HIM (% metabolized in human intestinal microsomes)” value was 8.0%. In addition, the “Stability RLM (% metabolized in rat liver microsomes)” value in series [3] came out at 10%. For the same compound, the pIC50 at vanilloid receptor (setting [4]) is 6.29.
In the same order, the values of `C#Cc1cc(CNC(=O)/C=C/c2ccc(C(F)(F)F)nc2NCCOC)cc(F)c1NS(C)(=O)=O` [Example 65, N-(3-Ethynyl-5-fluoro-4-methanesulfonylamino-benzyl)-3-[2-(2-methoxy-ethylamino)-6-trifluoromethyl-pyridin-3-yl]-acrylamide] are 14.0%, 15.3% and 7.05.
The like results for `C#Cc1cc(CNC(=O)/C=C/c2ccc(C(F)(F)F)nc2OCCOC)cc(F)c1NS(C)(=O)=O` [Example 75, N-(3-Ethynyl-5-fluoro-4-methanesulfonylamino-benzyl)-3-[2-(2-methoxy-ethoxy)-6-trifluoromethyl-pyridin-3-yl]-acrylamide] were, in that order, 17.0%, 17.0% and 6.43.
Take `C#Cc1cc(CNC(=O)/C=C/c2ccc(C(F)(F)F)nc2NC(C)C)cc(F)c1NS(C)(=O)=O` [Example 100, N-(3-Ethynyl-5-fluoro-4-methanesulfonylamino-benzyl)-3-(2-isopropylamino-6-trifluoromethyl-pyridin-3-yl)-acrylamide]: in series [1], the AUC came out at 17400 ng·h/mL, the Cmax came to 2530 ng/mL, the Tmax turned out to be 3 h and the half-life was 3.21 h. Moreover, the “Stability HIM (% metabolized in human intestinal microsomes)” value in series [2] was 0%. The “Stability RLM (% metabolized in rat liver microsomes)” value in series [3] stood at 3.4%. Also, the pIC50 on vanilloid receptor (setting [4]) was 7.16.
As to `CCCCNc1nc(C(F)(F)F)ccc1/C=C/C(=O)NCc1cc(C)c(NS(C)(=O)=O)c(F)c1` [Example 188, N-(3-Fluoro-4-methanesulfonylamino-5-methyl-benzyl)-3-(2-butylamino-6-trifluoromethyl-pyridin-3-yl)-acrylamide], the “Stability HIM (% metabolized in human intestinal microsomes)” value in series [2] was determined as 1.6%. The “Stability RLM (% metabolized in rat liver microsomes)” value in series [3] was 2.7%. Also, the pIC50 on vanilloid receptor (setting [4]) is 7.06.
For the compound `C#Cc1cc(CNC(=O)/C=C/c2ccc(C(F)(F)F)nc2CCC)cc(F)c1NS(C)(=O)=O` [Example 206, N-(3-Ethynyl-5-fluoro-4-methanesulfonylamino-benzyl)-3-(2-propyl-6-trifluoromethyl-pyridin-3-yl)-acrylamide], in series [1], the AUC worked out at 25900 ng·h/mL, the Cmax is 5500 ng/mL, the Tmax was 3.5 h and the half-life is 1.42 h. For the same compound, on vanilloid receptor (setting [4]), the pIC50 is 7.40.
Turning to `CCCNc1nc(C(F)(F)F)ccc1/C=C/C(=O)NCc1cc(F)c(NS(C)(=O)=O)c(F)c1` [Example 222, N-(3,5-Difluoro-4-methanesulfonylamino-benzyl)-3-(2-propylamino-6-trifluoromethyl-pyridin-3-yl)-acrylamide], the “Stability HIM (% metabolized in human intestinal microsomes)” value in series [2] was 0%. The “Stability RLM (% metabolized in rat liver microsomes)” value in series [3] is on record as 0%. In addition, the pIC50 on vanilloid receptor (setting [4]) is 7.31.
With `CCCc1nc(C(F)(F)F)ccc1/C=C/C(=O)NCc1ccc(NS(C)(=O)=O)c(Cl)c1` [Example 253, N-(3-Chloro-4-methanesulfonylamino-benzyl)-3-(2-propyl-6-trifluoromethyl)-pyridin-3-yl-acrylamide], the “Stability HIM (% metabolized in human intestinal microsomes)” value in series [2] is on record as 3.2%. The “Stability RLM (% metabolized in rat liver microsomes)” value in series [3] is listed as 0%. Moreover, the pIC50 on vanilloid receptor (setting [4]) was 6.30.
For the compound `C=Cc1cc(CNC(=O)/C=C/c2ccc(C(F)(F)F)nc2N2CCOCC2)cc(F)c1NS(C)(=O)=O` [Example 281, N-(3-Ethenyl-5-fluoro-4-methanesulfonylamino-benzyl)-3-(2-morpholin-1-yl-6-trifluoromethyl-pyridin-3-yl)-acrylamide], in series [1], the AUC is 654 ng·h/mL, the Cmax stood at 215 ng/mL, the Tmax came to 2 h and the half-life was 1.26 h. For the same compound, in series [2], the “Stability HIM (% metabolized in human intestinal microsomes)” value is on record as 0%. Also, in series [3], the “Stability RLM (% metabolized in rat liver microsomes)” value is 0.5%. In addition, the pIC50 on vanilloid receptor (setting [4]) was 6.66.
Compound `C=Cc1cc(CNC(=O)/C=C/c2ccc(C(C)(C)C)cc2)cc(F)c1NS(C)(=O)=O` [Examples 16] displayed a Cmax in series [1] of under 100 ng/mL. For the same compound, the pIC50 on vanilloid receptor (setting [5]) is 7.33.
Take `C#Cc1cc(CNC(=O)/C=C/c2ccc(C(C)(C)C)cc2N2CCOCC2)cc(F)c1NS(C)(=O)=O` [drawing 334, reference compound]: in series [2], the “Stability HIM (% metabolized in human intestinal microsomes)” value came out at 54.0%. Further, in series [3], the “Stability RLM (% metabolized in rat liver microsomes)” value is recorded as 12.8%. For the same compound, the pIC50 on vanilloid receptor (Table 2, unit inferred, read-out: IC50) is 6.07.
For `C#Cc1cc(CNC(=O)/C=C/c2ccc(C(C)(C)C)cc2N2CCOCC2)cc(F)c1NS(C)(=O)=O` [drawing 350, reference compound], in series [1], the AUC came out at 706 ng·h/mL, the Cmax was determined as 334 ng/mL, the time to peak (Tmax) turned out to be 2 h and the half-life is 0.932 h. Moreover, at vanilloid receptor (setting [5]), the pIC50 is 6.07.

Source of the values: patent US7858621B2 (Amorepacific Corporation, priority 2006, dated 2010).
